Laboratory results published in US9062124B2, “GIP-based mixed agonists for treatment of metabolic disorders and obesity” (priority 2008, dated 2015).
Where a SMILES comes first, the peptide text is derived from it. Bridges are numbered along the chain shown (N, C = ends).

Assays:
Type in all cases: cell-based
[1] = target: T1, glucagon receptor (Homo sapiens, UniProt P47871); test: cAMP synthesis functional assay (firefly luciferase reporter in HEK293 cells), glucagon receptor; conditions: Table 1; for Glucagon Receptor relative activity: relative to the native hormone of the indicated receptor
T1 construct: expressed in transfected cells; host or cells: HEK293
T1 sequence (P47871 26-477): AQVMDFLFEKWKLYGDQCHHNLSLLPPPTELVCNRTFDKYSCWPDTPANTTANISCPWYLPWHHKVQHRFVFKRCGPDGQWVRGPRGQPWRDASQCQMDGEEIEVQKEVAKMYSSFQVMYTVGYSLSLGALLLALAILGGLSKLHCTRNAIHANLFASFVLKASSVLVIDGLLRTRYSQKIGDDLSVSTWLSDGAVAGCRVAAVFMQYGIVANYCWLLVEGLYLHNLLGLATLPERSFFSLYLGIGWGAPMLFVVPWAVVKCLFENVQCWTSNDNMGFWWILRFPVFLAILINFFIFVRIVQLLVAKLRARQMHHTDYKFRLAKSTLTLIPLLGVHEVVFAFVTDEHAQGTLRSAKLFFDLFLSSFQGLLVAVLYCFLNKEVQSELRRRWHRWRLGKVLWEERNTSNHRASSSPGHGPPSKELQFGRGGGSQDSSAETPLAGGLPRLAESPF

[2] = target: T2, GLP-1 receptor (Homo sapiens, UniProt P43220); test: cAMP synthesis functional assay (firefly luciferase reporter in HEK293 cells), GLP-1 receptor; conditions: Table 1; for GLP-1 Receptor relative activity: relative to the native hormone of the indicated receptor
T2 construct: expressed in transfected cells; host or cells: HEK293
T2 sequence (P43220 24-463, species assumed): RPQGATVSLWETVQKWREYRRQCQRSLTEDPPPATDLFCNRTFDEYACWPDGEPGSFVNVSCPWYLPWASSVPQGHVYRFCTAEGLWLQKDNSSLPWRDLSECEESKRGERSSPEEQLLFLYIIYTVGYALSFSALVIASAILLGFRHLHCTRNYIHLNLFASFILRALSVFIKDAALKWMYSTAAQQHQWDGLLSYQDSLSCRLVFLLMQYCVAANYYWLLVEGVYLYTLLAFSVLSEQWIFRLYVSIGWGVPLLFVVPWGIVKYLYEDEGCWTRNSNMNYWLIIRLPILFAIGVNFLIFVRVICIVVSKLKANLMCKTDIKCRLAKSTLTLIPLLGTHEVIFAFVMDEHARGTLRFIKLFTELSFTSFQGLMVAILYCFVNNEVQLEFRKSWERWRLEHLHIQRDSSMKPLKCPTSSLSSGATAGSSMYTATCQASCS

[3] = target: T3, GIP receptor (Homo sapiens, UniProt P48546); test: cAMP synthesis functional assay (firefly luciferase reporter in HEK293 cells), GIP receptor; conditions: Table 1; for GIP Receptor relative activity: relative to the native hormone of the indicated receptor
T3 construct: expressed in transfected cells; host or cells: HEK293
T3 sequence (P48546 22-466): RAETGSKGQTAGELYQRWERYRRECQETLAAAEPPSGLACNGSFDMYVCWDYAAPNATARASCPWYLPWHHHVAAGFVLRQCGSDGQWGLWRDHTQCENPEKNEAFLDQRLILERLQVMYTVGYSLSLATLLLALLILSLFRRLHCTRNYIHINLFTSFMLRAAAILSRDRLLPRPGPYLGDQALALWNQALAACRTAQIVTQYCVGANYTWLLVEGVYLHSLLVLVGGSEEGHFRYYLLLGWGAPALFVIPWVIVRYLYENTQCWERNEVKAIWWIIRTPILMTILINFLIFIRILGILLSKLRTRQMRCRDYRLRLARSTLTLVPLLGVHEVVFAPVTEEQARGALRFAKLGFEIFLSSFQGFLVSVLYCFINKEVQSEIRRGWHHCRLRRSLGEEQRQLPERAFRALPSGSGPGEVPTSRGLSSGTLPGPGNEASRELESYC

Compound | Glucagon Receptor relative activity [1] | GLP-1 Receptor relative activity [2] | GIP Receptor relative activity [3] | EC50 ([2]; GLP-1 Receptor EC50, nM) | EC50 ([1]; Glucagon Receptor EC50, nM) | EC50 ([3]; GIP Receptor EC50, nM)
CC[C@H](C)[C@@H]1NC(=O)[C@@H](NC(=O)[C@H](CC(=O)O)NC(=O)[C@H](CC(C)C)NC(=O)[C@H](Cc2ccc(O)cc2)NC(=O)[C@H](CCCCN)NC(=O)[C@H](CO)NC(=O)[C@H](Cc2ccc(O)cc2)NC(=O)[C@H](CC(=O)O)NC(=O)[C@H](CO)NC(=O)[C@@H](NC(=O)[C@H](Cc2ccccc2)NC(=O)[C@@H](NC(=O)CNC(=O)[C@H](CCC(N)=O)NC(=O)[C@H](CO)NC(=O)[C@@H](N)Cc2ccc(O)cc2)[C@@H](C)O)[C@@H](C)O)CCC(=O)NCCCC[C@@H](C(=O)N[C@@H](CCC(=O)O)C(=O)N[C@@H](Cc2ccccc2)C(=O)N[C@H](C(=O)N[C@@H](CC(N)=O)C(=O)N[C@@H](Cc2c[nH]c3ccccc23)C(=O)N[C@@H](CC(C)C)C(=O)N[C@@H](CC(C)C)C(=O)N[C@@H](C)C(=O)N[C@@H](CCC(N)=O)C(N)=O)C(C)C)NC(=O)[C@H](CCC(N)=O)NC(=O)[C@H](Cc2c[nH]cn2)NC1=O [mt-118] (H-YSQGTFTSDYSKYLDEIHQKEFVNWLLAQ-NH2; lactam 16-20; N-terminus assumed) | 125.00% | 2.34% | 6.39% | – | – | –
CC[C@H](C)[C@H](NC(=O)[C@H](Cc1ccccc1)NC(=O)[C@H](CCC(=O)O)NC(=O)[C@@H]1CCCCNC(=O)CC[C@H](NC(=O)[C@H](CC(=O)O)NC(=O)[C@H](CC(C)C)NC(=O)[C@H](Cc2ccc(O)cc2)NC(=O)[C@H](CCCCN)NC(=O)[C@H](CO)NC(=O)[C@H](Cc2ccc(O)cc2)NC(=O)[C@H](CC(=O)O)NC(=O)[C@H](CO)NC(=O)[C@@H](NC(=O)[C@H](Cc2ccccc2)NC(=O)[C@@H](NC(=O)CNC(=O)[C@H](CCC(N)=O)NC(=O)[C@H](CO)NC(=O)[C@@H](N)Cc2ccc(O)cc2)[C@@H](C)O)[C@@H](C)O)C(=O)N[C@@H](CCC(N)=O)C(=O)N[C@@H](C)C(=O)N[C@@H](C)C(=O)N1)C(=O)N[C@@H](C)C(=O)N[C@@H](Cc1c[nH]c2ccccc12)C(=O)N[C@@H](CC(C)C)C(=O)N[C@@H](CCSC)C(=O)N[C@@H](CC(N)=O)C(=O)NCC(=O)NCC(=O)N1CCC[C@H]1C(=O)N[C@@H](CO)C(=O)N[C@@H](CO)C(=O)NCC(=O)N[C@@H](C)C(=O)N1CCC[C@H]1C(=O)N1CCC[C@H]1C(=O)N1CCC[C@H]1C(=O)N[C@@H](CO)C(N)=O [mt-120] (H-YSQGTFTSDYSKYLDEQAAKEFIAWLMNGGPSSGAPPPS-NH2; lactam 16-20; N-terminus assumed) | 259.46% | 13.45% | 1.81% | – | – | –
CC[C@H](C)[C@H](NC(=O)[C@H](CO)NC(=O)[C@H](Cc1ccc(O)cc1)NC(=O)[C@H](CC(=O)O)NC(=O)[C@H](CO)NC(=O)[C@@H](NC(=O)[C@H](Cc1ccccc1)NC(=O)[C@@H](NC(=O)CNC(=O)[C@H](CCC(N)=O)NC(=O)[C@H](CO)NC(=O)[C@@H](N)Cc1c[nH]cn1)[C@@H](C)O)[C@@H](C)O)C(=O)N[C@@H](Cc1ccc(O)cc1)C(=O)N[C@@H](CCSC)C(=O)N[C@@H](CC(=O)O)C(=O)N[C@H]1CCC(=O)NCCCC[C@@H](C(=O)N[C@@H](CC(=O)O)C(=O)N[C@@H](Cc2ccccc2)C(=O)N[C@H](C(=O)N[C@@H](CC(N)=O)C(=O)N[C@@H](Cc2c[nH]c3ccccc23)C(=O)N[C@@H](CC(C)C)C(=O)N[C@@H](CC(C)C)C(=O)N[C@@H](C)C(=O)N[C@@H](CCC(N)=O)C(N)=O)C(C)C)NC(=O)[C@H](CCC(N)=O)NC(=O)[C@H](Cc2c[nH]cn2)NC(=O)[C@H]([C@@H](C)CC)NC1=O [mt-124] (H-HSQGTFTSDYSIYMDEIHQKDFVNWLLAQ-NH2; lactam 16-20; N-terminus assumed) | 8.64% | 100.00% | 0.95% | 0.04 nM | – | –
CC[C@H](C)[C@H](NC(=O)[C@H](CO)NC(=O)[C@H](Cc1ccc(O)cc1)NC(=O)[C@H](CC(=O)O)NC(=O)[C@H](CO)NC(=O)[C@@H](NC(=O)[C@H](Cc1ccccc1)NC(=O)[C@@H](NC(=O)CNC(=O)[C@H](CCC(N)=O)NC(=O)[C@H](CO)NC(=O)[C@@H](N)Cc1ccc(O)cc1)[C@@H](C)O)[C@@H](C)O)C(=O)N[C@@H](Cc1ccc(O)cc1)C(=O)N[C@@H](CCSC)C(=O)N[C@@H](CC(=O)O)C(=O)N[C@H]1CCC(=O)NCCCC[C@@H](C(=O)N[C@@H](CC(=O)O)C(=O)N[C@@H](Cc2ccccc2)C(=O)N[C@H](C(=O)N[C@@H](CC(N)=O)C(=O)N[C@@H](Cc2c[nH]c3ccccc23)C(=O)N[C@@H](CC(C)C)C(=O)N[C@@H](CC(C)C)C(=O)N[C@@H](C)C(=O)N[C@@H](CCC(N)=O)C(N)=O)C(C)C)NC(=O)[C@H](CCC(N)=O)NC(=O)[C@H](Cc2c[nH]cn2)NC(=O)[C@H]([C@@H](C)CC)NC1=O [mt-125] (H-YSQGTFTSDYSIYMDEIHQKDFVNWLLAQ-NH2; lactam 16-20; N-terminus assumed) | 9.06% | 3.17% | 19.64% | – | – | –
CC(C)C[C@H](NC(=O)[C@H](CC(C)C)NC(=O)[C@H](Cc1c[nH]c2ccccc12)NC(=O)[C@H](CC(N)=O)NC(=O)[C@@H](NC(=O)[C@H](Cc1ccccc1)NC(=O)[C@H](CCC(=O)O)NC(=O)[C@@H]1CCCCNC(=O)CC[C@H](NC(=O)[C@H](CC(=O)O)NC(=O)[C@H](CC(C)C)NC(=O)[C@H](Cc2ccc(O)cc2)NC(=O)[C@H](CCCCN)NC(=O)[C@H](CO)NC(=O)[C@H](Cc2ccc(O)cc2)NC(=O)[C@H](CC(=O)O)NC(=O)[C@H](CO)NC(=O)[C@@H](NC(=O)[C@H](Cc2ccccc2)NC(=O)[C@@H](NC(=O)CNC(=O)[C@H](CCC(N)=O)NC(=O)[C@H](CO)NC(=O)[C@@H](N)Cc2ccc(O)cc2)[C@@H](C)O)[C@@H](C)O)C(=O)N[C@@H](CCC(N)=O)C(=O)N[C@@H](C)C(=O)N[C@@H](C)C(=O)N1)C(C)C)C(=O)N[C@@H](C)C(=O)NCC(=O)NCC(=O)N1CCC[C@H]1C(=O)N[C@@H](CO)C(=O)N[C@@H](CO)C(=O)NCC(=O)N[C@@H](C)C(=O)N1CCC[C@H]1C(=O)N1CCC[C@H]1C(=O)N1CCC[C@H]1C(=O)N[C@@H](CO)C(N)=O [mt-127] (H-YSQGTFTSDYSKYLDEQAAKEFVNWLLAGGPSSGAPPPS-NH2; lactam 16-20; N-terminus assumed) | 718.39% | 87.75% | 10.51% | – | 0.044 nM | –
CC[C@H](C)[C@H](NC(=O)[C@H](Cc1ccccc1)NC(=O)[C@H](CC(=O)O)NC(=O)[C@@H]1CCCCNC(=O)CC[C@H](NC(=O)[C@H](CC(=O)O)NC(=O)[C@H](CC(C)C)NC(=O)[C@H](Cc2ccc(O)cc2)NC(=O)[C@H](CCCCN)NC(=O)[C@H](CO)NC(=O)[C@H](Cc2ccc(O)cc2)NC(=O)[C@H](CC(=O)O)NC(=O)[C@H](CO)NC(=O)[C@@H](NC(=O)[C@H](Cc2ccccc2)NC(=O)[C@@H](NC(=O)CNC(=O)[C@H](CCC(N)=O)NC(=O)[C@H](CO)NC(=O)[C@@H](N)Cc2c[nH]cn2)[C@@H](C)O)[C@@H](C)O)C(=O)N[C@@H]([C@@H](C)CC)C(=O)N[C@@H](Cc2c[nH]cn2)C(=O)N[C@@H](CCC(N)=O)C(=O)N1)C(=O)N[C@@H](C)C(=O)N[C@@H](Cc1c[nH]c2ccccc12)C(=O)N[C@@H](CC(C)C)C(=O)N[C@@H](CCSC)C(=O)N[C@@H](CC(N)=O)C(=O)NCC(=O)NCC(=O)N1CCC[C@H]1C(=O)N[C@@H](CO)C(=O)N[C@@H](CO)C(=O)NCC(=O)N[C@@H](C)C(=O)N1CCC[C@H]1C(=O)N1CCC[C@H]1C(=O)N1CCC[C@H]1C(=O)N[C@@H](CO)C(N)=O [mt-128] (H-HSQGTFTSDYSKYLDEIHQKDFIAWLMNGGPSSGAPPPS-NH2; lactam 16-20; N-terminus assumed) | 11.13% | 33.33% | 0.42% | – | – | 14.6 nM
CC[C@H](C)[C@H](NC(=O)[C@H](Cc1ccccc1)NC(=O)[C@H](CC(=O)O)NC(=O)[C@@H]1CCCCNC(=O)CC[C@H](NC(=O)[C@H](CC(=O)O)NC(=O)[C@H](CC(C)C)NC(=O)[C@H](Cc2ccc(O)cc2)NC(=O)[C@H](CCCCN)NC(=O)[C@H](CO)NC(=O)[C@H](Cc2ccc(O)cc2)NC(=O)[C@H](CC(=O)O)NC(=O)[C@H](CO)NC(=O)[C@@H](NC(=O)[C@H](Cc2ccccc2)NC(=O)[C@@H](NC(=O)CNC(=O)[C@H](CCC(N)=O)NC(=O)[C@H](CO)NC(=O)[C@@H](N)Cc2ccc(O)cc2)[C@@H](C)O)[C@@H](C)O)C(=O)N[C@@H]([C@@H](C)CC)C(=O)N[C@@H](Cc2c[nH]cn2)C(=O)N[C@@H](CCC(N)=O)C(=O)N1)C(=O)N[C@@H](C)C(=O)N[C@@H](Cc1c[nH]c2ccccc12)C(=O)N[C@@H](CC(C)C)C(=O)N[C@@H](CCSC)C(=O)N[C@@H](CC(N)=O)C(=O)NCC(=O)NCC(=O)N1CCC[C@H]1C(=O)N[C@@H](CO)C(=O)N[C@@H](CO)C(=O)NCC(=O)N[C@@H](C)C(=O)N1CCC[C@H]1C(=O)N1CCC[C@H]1C(=O)N1CCC[C@H]1C(=O)N[C@@H](CO)C(N)=O [mt-129] (H-YSQGTFTSDYSKYLDEIHQKDFIAWLMNGGPSSGAPPPS-NH2; lactam 16-20; N-terminus assumed) | 17.34% | 1.12% | 2.06% | – | – | –
